This assay deals with HT-29 cells. Briefly: HT-29 cell necrosis/necroptosis inhibition (TNF-α + SMAC mimetic + zVAD-FMK; CellTiter-Glo cell viability). The class given is cell-based. As to conditions: Homo sapiens. The protocol:
Compounds 1-319 (denoted as Compound Nos. 1 through 319 in Table 3 and 4) of the disclosure were tested for binding and cellular RIP1 inhibitory activity following the experimental procedures described below.
• Cell line: HT-29 (ATCC® HTB-38™) • Culture medium: McCOY's 5A, Gibco, Cat No. 16600-082 • FBS, Gibco, Cat No. 10099-141C • Trypsin: Gibco, Cat No. 25200-056 • DMSO: Sigma, Cat No. 67-68-5, 1L • Assay plate: Corning #3903 • Compound dilution plate: Corning #3357 • Inducers: TNFα, GenScript, Cat No. Z01001-50, • SmacM, Cat. No., HY-15989, MedChemExpress (MCE) • Z_VAD FMK, TargetMol, T6013 • Cell Titer-Glo® Luminescent Cell Viability Assay Kit: Promega, Cat No. G7573 • EnVision: PerkinElmer, 2105-0010 Methods Cell Seeding
1. HT-29 cells were checked every day to make sure that they were healthy and growing as expected. They were subjected to sub-culturing when they were approximately 80% confluent.
2. The culture medium, McCOY's 5A medium (Gibco, Cat No. 16600-082) with 10% fetal bovine serum or FBS (Gibco, Cat No. 10099-141C), was pre-warmed in a 37° C. water bath for at least 30 min.
3. When the cells had reached a desired level of confluency of 80% in a T75 flask, the medium was aspirated, and the cells were washed with warm phosphate buffered saline or PBS two times.
4. 2-3 ml fresh warm trypsin (Gibco, Cat No. 25200-056) solution was added to the washed cells. The flask with the cells was transferred to a 37° C. incubator.
5. After 5 minutes, the side of the flask was tapped, and the flask was examined under a microscope for detachment of the cells to the flask. If necessary, the cells were kept in the incubator for an additional 5-10 minutes, with occasional tapping, until lifting was complete.
6. The trypsin reaction was neutralized by transferring 6-9 ml cell culture medium to sterile 15 ml conical tubes, and by centrifuging the cell culture at 300×g for 7 minutes to pellet the cells (supernatant decanted).
7. The cells were resuspended in fresh cell culture medium and the cell counting was performed using a hemocytometer.
8. 100 μl of the resuspended cell culture medium containing ˜5,000 cells were transferred into each well of the sterile 96-well cell culture plate (Corning 3903) and cultured overnight at 37° C. with 5% CO2.
Compound Titration and Treatment
1. All test compounds were dissolved in DMSO (Dimethyl sulfoxide) to create a 20 mM stock.
2. 3 μl of each compound 20 mM stock was mixed with 27 μl DMSO, and the compound solution was further diluted at a titration ratio of 1:3 (20 μl compound solution+40 μl DMSO) till the 10 points end.
3. All culture medium was removed from assay plates filled with HT-29 cell cultures. The cells were then washed with 1 PBS, and resuspended in fresh, FBS-free McCOY's 5A medium containing a cocktail of TNF-α (10 ng/ml), a SMAC mimetic compound (6 μM) and Z-VAD-fluoromethylketone or zVAD-FMK (10 μM) to stimulate the HT-29 cells to increase RIP1 kinase levels and necroptosis.
4. 0.5 μL of the diluted compound solution was added to the corresponding 96-well assay plates.
5. The assay plates were incubated for 20 hours at 37° C. with 5% CO2.
1. The CellTiter-Glo® Luminescent Cell Viability Assay was employed to detect the ATP levels of viable HT-29 cells.
2. The CellTiter-Glo® buffer and the lyophilized substrate were equilibrated to room temperature prior to use.
3. The CellTiter-Glo® substrate was resuspended with CellTiter-Glo® buffer, then mixed by gently vortexing to obtain a homogeneous solution.
4. 20 μl the enzyme/substrate mixture was transferred by multi-channel pipetting into 96-well assay plates.
5. The assay plates were placed on an orbital shaker and the contents were shaken for 3 minutes to induce cell lysis.
6. The assay plates were incubated at room temperature for 10 minutes to stabilize the luminescent signal.
7. The luminescence signals were read and recorded with EnVision.
8. The geometric mean EC50 values were calculated from 10 points response dose with duplicates. In

Where [1] appears, read: HT-29 cells, TNF-α 10 ng/ml + SMAC mimetic 6 μM + zVAD-FMK 10 μM, 20 hours, geometric mean, 10 points in duplicate, read-out: EC50 (Cell activity; Necrosis/Necroptosis Inhibitory Activity, Compounds 1-142).
The mark [2] stands for this setting: HT-29 cells, TNF-α 10 ng/ml + SMAC mimetic 6 μM + zVAD-FMK 10 μM, 20 hours, geometric mean, 10 points in duplicate, read-out: EC50 (Cell activity; Necrosis/Necroptosis Inhibitory Activity, Compounds 143-323).

The structures appear in SMILES notation. Like-named read-outs stand apart in the source and are kept apart here.

Consider `Cc1cc(O)n(-c2nc(N3CCN(C(=O)N4N=CC[C@H]4c4cc(F)cc(C#N)c4)CC3)ncc2F)n1` [Compound 141, (S)-3-fluoro-5-(1-(4-(5-fluoro-4-(5-hydroxy-3-methyl-1H-pyrazol-1-yl)pyrimidin-2-yl)piperazine-1-carbonyl)-4,5-dihydro-1H-pyrazol-5-yl)benzonitrile], for which the EC50 under setting [1] is 0.0001 to 0.1 µM.

On to `CC(=O)Nc1c(C)nn(-c2nc(N3CCN(C(=O)N4N=CC[C@H]4c4cc(F)cc(F)c4)CC3)ncc2F)c1C` [Compound 193, (S)—N-(1-(2-(4-(5-(3,5-difluorophenyl)-4,5-dihydro-1H-pyrazole-1-carbonyl)piperazin-1-yl)-5-fluoropyrimidin-4-yl)-3,5-dimethyl-1H-pyrazol-4-yl)acetamide], for which, under setting [2], the EC50 is 0.0001 to 0.1 µM.

On to `N#Cc1cn(-c2ccnc(N3CCN(C(=O)N4N=CC[C@H]4c4cc(F)cc(F)c4)CC3)n2)cn1` [Compound 2, (S)-1-(2-(4-(5-(3,5-difluorophenyl)-4,5-dihydro-1H-pyrazole-1-carbonyl)piperazin-1-yl)pyrimidin-4-yl)-1H-imidazole-4-carbonitrile], for which the EC50 under setting [1] was 0.0001 to 0.1 µM.

In the case of `Cc1nn(-c2ccnc(N3CCN(C(=O)N4N=CC[C@H]4c4cc(F)cc(C#N)c4)CC3)n2)c(C)c1S(C)(=O)=O` [Compound 206, (S)-3-(1-(4-(4-(3,5-dimethyl-4-(methylsulfonyl)-1H-pyrazol-1-yl)pyrimidin-2-yl)piperazine-1-carbonyl)-4,5-dihydro-1H-pyrazol-5-yl)-5-fluorobenzonitrile], the concentration giving a half-maximal response (EC50) under setting [2] lay within 0.0001 to 0.1 µM.

Regarding `Cc1c(-c2nc(N3CCN(C(=O)N4N=CC[C@H]4c4cc(F)cc(F)c4)CC3)ncc2F)c(C(F)(F)F)nn1C` [Compound 198, (S)-(5-(3,5-difluorophenyl)-4,5-dihydro-1H-pyrazol-1-yl)(4-(4-(1,5-dimethyl-3-(trifluoromethyl)-1H-pyrazol-4-yl)-5-fluoropyrimidin-2-yl)piperazin-1-yl)methanone], the EC50 under setting [2] was 0.0001 to 0.1 µM.

Consider `Cc1cnn(C)c1-c1cc(N2CCN(C(=O)N3N=CCC3c3cncs3)CC2)c(F)cn1` (stereo not drawn) [Compound 293, (4-(2-(1,4-dimethyl-1H-pyrazol-5-yl)-5-fluoropyridin-4-yl)piperazin-1-yl)(5-(thiazol-5-yl)-4,5-dihydro-1H-pyrazol-1-yl)methanone], for which, under setting [2], the EC50 was in the range of 0.0001 to 0.1 µM.

`Cc1nc(C)n(-c2nc(N3CCN(C(=O)N4N=CC[C@H]4c4cc(F)cc(F)c4)CC3)ncc2Cl)n1` [Compound 259, (S)-(4-(5-chloro-4-(3,5-dimethyl-1H-1,2,4-triazol-1-yl)pyrimidin-2-yl)piperazin-1-yl)(5-(3,5-difluorophenyl)-4,5-dihydro-1H-pyrazol-1-yl)methanone]: under setting [2], the EC50 is 0.0001 to 0.1 µM.

With `Cc1c(N)nn(C)c1-c1nc(N2CCN(C(=O)N3N=CC[C@H]3c3cc(F)cc(C#N)c3)CC2)ncc1F` [Compound 153, (S)-3-(1-(4-(4-(3-amino-1,4-dimethyl-1H-pyrazol-5-yl)-5-fluoropyrimidin-2-yl)piperazine-1-carbonyl)-4,5-dihydro-1H-pyrazol-5-yl)-5-fluorobenzonitrile], the EC50 under setting [2] lay in the range of 0.0001 to 0.1 µM.

Consider `Cc1cn(-c2nc(N3CCN(C(=O)N4N=CC[C@H]4c4cc(F)cc(C#N)c4)CC3)ncc2F)c(C#N)n1` [Compound 16, (S)-1-(2-(4-(5-(3-cyano-5-fluorophenyl)-4,5-dihydro-1H-pyrazole-1-carbonyl)piperazin-1-yl)-5-fluoropyrimidin-4-yl)-4-methyl-1H-imidazole-2-carbonitrile], for which the EC50 under setting [1] lay in the range of 0.0001 to 0.1 µM.

Consider `Cc1c(-c2nc(N3CCN(C(=O)N4N=CC[C@H]4c4cc(F)cc(C#N)c4)CC3)ncc2F)nnn1CC(N)=O` [Compound 79, (S)-2-(4-(2-(4-(5-(3-cyano-5-fluorophenyl)-4,5-dihydro-1H-pyrazole-1-carbonyl)piperazin-1-yl)-5-fluoropyrimidin-4-yl)-5-methyl-1H-1,2,3-triazol-1-yl)acetamide], for which the concentration giving a half-maximal response (EC50) under setting [1] is 0.0001 to 0.1 µM.

As to `COCCn1nc(C)c(-c2nc(N3CCN(C(=O)N4N=CC[C@H]4c4cc(F)cc(F)c4)CC3)ncc2F)c1C` [Compound 120, (S)-(5-(3,5-difluorophenyl)-4,5-dihydro-1H-pyrazol-1-yl)(4-(5-fluoro-4-(1-(2-methoxyethyl)-3,5-dimethyl-1H-pyrazol-4-yl)pyrimidin-2-yl)piperazin-1-yl)methanone], under setting [1], the EC50 is 0.0001 to 0.1 µM.

For the compound `O=C(N1CCN(c2ncc(F)c(-n3cnc(C(F)(F)F)n3)n2)CC1)N1N=CC[C@H]1c1cccc(F)c1` [Compound 313, (S)-(4-(5-fluoro-4-(3-(trifluoromethyl)-1H-1,2,4-triazol-1-yl)pyrimidin-2-yl)piperazin-1-yl)(5-(3-fluorophenyl)-4,5-dihydro-1H-pyrazol-1-yl)methanone], the EC50 under setting [2] lay within 0.0001 to 0.1 µM.

Take `Cc1nn(CC2CC2)c(C)c1-c1nc(N2CCN(C(=O)N3N=CC[C@H]3c3cc(F)cc(F)c3)CC2)ncc1F` [Compound 121, (S)-(4-(4-(1-(cyclopropylmethyl)-3,5-dimethyl-1H-pyrazol-4-yl)fluoropyrimidin-2-yl)piperazin-1-yl)(5-(3,5-difluorophenyl)-4,5-dihydro-1H-pyrazol-1-yl)methanone]: under setting [1], the EC50 was 0.0001 to 0.1 µM.

Consider `Cc1ncc(C#N)n1-c1nc(N2CCN(C(=O)N3N=CC[C@H]3c3cc(F)cc(C#N)c3)CC2)ncc1F` [Compound 148, 1-(2-(4-((S)-5-(3-cyano-5-fluorophenyl)-4,5-dihydro-1H-pyrazole-1-carbonyl)piperazin-1-yl)-5-fluoropyrimidin-4-yl)-2-methyl-1H-imidazole-5-carbonitrile], for which the EC50 (HT-29, 20 h, read-out: EC50 (Cell activity; Necrosis/Necroptosis Inhibitory Activity, Compounds 143-323)) lay in the range of 0.0001 to 0.1 µM.

Take `NC(=O)Cn1ccc(-c2nc(N3CCN(C(=O)N4N=CC[C@H]4c4cc(F)cc(F)c4)CC3)ncc2F)n1` [Compound 29, (S)-2-(3-(2-(4-(5-(3,5-difluorophenyl)-4,5-dihydro-1H-pyrazole-1-carbonyl)piperazin-1-yl)-5-fluoropyrimidin-4-yl)-1H-pyrazol-1-yl)acetamide]: the half-maximal effective concentration (EC50) under setting [1] lay within 0.0001 to 0.1 µM.

As for `Cc1[nH]nc(CO)c1-c1nc(N2CCN(C(=O)N3N=CC[C@H]3c3cc(F)cc(C#N)c3)CC2)ncc1F` [Compound 163, (S)-3-fluoro-5-(1-(4-(5-fluoro-4-(3-(hydroxymethyl)-5-methyl-1H-pyrazol-4-yl)pyrimidin-2-yl)piperazine-1-carbonyl)-4,5-dihydro-1H-pyrazol-5-yl)benzonitrile], the EC50 under setting [2] lay within 0.0001 to 0.1 µM.

`Cc1nc(C)n(-c2nc(N3CCN(C(=O)N4N=CCC4c4csc(C)n4)CC3)ncc2Cl)n1` (stereo not drawn) [Compound 224, (4-(5-chloro-4-(3,5-dimethyl-1H-1,2,4-triazol-1-yl)pyrimidin-2-yl)piperazin-1-yl)(5-(2-methylthiazol-4-yl)-4,5-dihydro-1H-pyrazol-1-yl)methanone]: under setting [2], the EC50 is 0.1 to 1 µM.

Regarding `Cc1nnc(-c2nc(N3CCN(C(=O)N4N=CC[C@H]4c4cc(F)cc(F)c4)CC3)ncc2F)s1` [Compound 63, (S)-(5-(3,5-difluorophenyl)-4,5-dihydro-1H-pyrazol-1-yl)(4-(5-fluoro-4-(5-methyl-1,3,4-thiadiazol-2-yl)pyrimidin-2-yl)piperazin-1-yl)methanone], the half-maximal effective concentration (EC50) under setting [1] was in the range of 0.0001 to 0.1 µM.
